What all share (assay): NCI anticancer screen, dose series, 48 h
Experiment [1] concerns DLD-1.
Experiment [2] has as its system DMS-114.
For experiment [3], the system named is DMS-273.
The test system of experiment [4] is HOP-18.
Experiment [5] deals with KM-20L2.
Experiment [6] relates to RXF 631.
Experiment [7] concerns SNB-78.
Experiment [8] concerns XF498.
Experiment [9] deals with M19-MEL.

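Each compound was tested at five concentrations against cells in 96-well plates for 48 hours. At the GI50, growth is halved.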 Calls of active or inactive are those of the source. No stated cut-off is given here; in the data, active = GI50 up to about 1.1 µM and inactive = higher. Peptide text beside a SMILES is read from it.

On to `Cc1cc(N(CCC#N)CCC#N)ccc1/C=C(\N=[N+]=[N-])C(=O)NC(=O)COc1ccccc1`, for which the GI50 in experiment [1], in [2], in experiment [3], in [4], in [5] and in experiment [6] was > 100 µM (inactive) each time. The GI50 in [7] was > 61.7 µM (inactive); in [8] it was 34.7 µM (inactive).

As to `O=C(NC1CCCCC1)c1c(O)[nH]c(=S)[nH]c1=O`, the GI50 was > 100 µM (inactive) in experiment [1]; 88.5 µM (inactive) in experiment [2]; > 100 µM (inactive) in experiment [4]; > 100 µM (inactive) in experiment [5]; > 100 µM (inactive) in experiment [9]; > 100 µM (inactive) in experiment [6]. Besides, the GI50 in experiment [7] was 99.1 µM (inactive).

As for `CCOC(=O)C(=O)Nc1c(C)cccc1C(C)(C)C`, the GI50 in [2], in [3], in [4], in experiment [5], in experiment [9] and in experiment [6] was > 100 µM (inactive) in each case. Also, the GI50 in experiment [7] and in experiment [8] was > 100 µM (inactive) throughout.

On to `Cc1ccc(NC(=O)C(=O)C(C(=O)c2ccc3ccccc3c2)C2OC(=O)c3ccccc32)c(C)c1` (stereo not drawn), for which the GI50 in [1] is 12.6 µM (inactive); in experiment [2], 7.6 µM (inactive); in experiment [3] it was > 10 µM (inactive); in experiment [4] it was 12.1 µM (inactive); in [5], 24.4 µM (inactive); in experiment [9] it was 6.38 µM (inactive). In addition, the GI50 in experiment [6] is 4.68 µM (inactive); in experiment [7] it was 8.73 µM (inactive); in experiment [8], 0.485 µM (active).

Take `COC(=O)/C=C(/C(=O)OC)C1(C)c2cc(C(=O)OC)c(C(=O)OC)c(N)c2C(=N)N1c1ccccc1` (stereo not drawn): the GI50 in [1] is 13.8 µM (inactive); in experiment [2], 15.1 µM (inactive); in experiment [3] it was 52.8 µM (inactive); in experiment [4], 20.6 µM (inactive); in experiment [5] it was 17 µM (inactive); in [9], 13.9 µM (inactive). The GI50 in experiment [6] is 29.1 µM (inactive); in experiment [8], 14.7 µM (inactive).

Take `CC(C)(C)c1cc(C#N)c2c(c1)C(=O)OC2(c1ccccc1)c1ccccc1C#N` (stereo not drawn): the GI50 in experiment [1], in experiment [2], in experiment [3], in experiment [4], in [5] and in [9] was > 100 µM (inactive) each time. The GI50 in [7] and in [8] was > 100 µM (inactive) throughout.

`C=C1C(=O)OC2CCCCC3OC3C12` (stereo not drawn): the GI50 in [1] was 7.83 µM (inactive); in experiment [3], 10.3 µM (inactive); in experiment [4] it was 11 µM (inactive); in experiment [5] it was 10.1 µM (inactive); in experiment [9] it was 11.6 µM (inactive); in experiment [6] it was 6.19 µM (inactive). The values for the GI50 in experiment [7] and in experiment [8] were 19.4 µM (inactive) and 12 µM (inactive), respectively.

As for `CCOC(=O)c1ccc(N[C@@H]2c3cc4c(cc3C(C3=CC(=O)C(=O)C(OC)=C3)[C@H]3C(=O)OCC32)OCO4)cc1` (stereo partly drawn), the GI50 in experiment [2] was 1.79 µM (inactive); in experiment [3], 1.12 µM (inactive); in experiment [5], 6.37 µM (inactive); in experiment [9] it was 6.1 µM (inactive); in [6], 1.91 µM (inactive); in experiment [7], 8.69 µM (inactive). Moreover, the GI50 in experiment [8] was 1.48 µM (inactive).

Regarding `CC(C)(C)OC(=O)NC1CCC[C@H]1O` (stereo partly drawn), the GI50 in experiment [1], in experiment [2], in [3], in [5], in experiment [9] and in [6] was > 100 µM (inactive) in each case. The GI50 in [7] and in [8] was > 100 µM (inactive) in each case.

On to `CC(C)CC(NC(=O)C(CC(C)C)NC(=O)C(Cc1c[nH]cn1)NC(=O)C(C)NC(=O)C(NC(=O)C(C)NC(=O)C(Cc1c[nH]c2ccccc12)NC(=O)C(CCC(=O)O)NC(=O)C(N)Cc1ccccc1)C(C)C)C(N)=O` (stereo not drawn) (H-FEWAVAHLL-NH2; configuration not given here), for which the GI50 in experiment [1], in experiment [2], in experiment [3], in experiment [4], in [5] and in experiment [9] was > 100 µM (inactive) each time. Moreover, the GI50 in experiment [6], in experiment [7] and in [8] was > 100 µM (inactive) each time.

For the molecule `O=C(O)C1OC(n2cc(F)c(=O)[nH]c2=O)CC1O` (stereo not drawn), the GI50 is > 100 µM (inactive) in experiment [1]; > 92.3 µM (inactive) in experiment [2]; 12.9 µM (inactive) in experiment [3]; 40.6 µM (inactive) in experiment [4]; 23.8 µM (inactive) in experiment [5]; > 83.2 µM (inactive) in experiment [9]. For the same molecule, the GI50 was > 26.2 µM (inactive) in [7] and > 68.2 µM (inactive) in [8].

Turning to `COc1ccc(C(c2c(O)c3ccccc3n(C)c2=O)c2c(O)c3ccccc3n(C)c2=O)cc1`, the GI50 in experiment [1] was 37.5 µM (inactive); in experiment [2], 63.1 µM (inactive); in experiment [3], 31.2 µM (inactive); in [4], 35.7 µM (inactive); in experiment [5], 21.3 µM (inactive); in experiment [9], 98.4 µM (inactive). Further, the results for the GI50 in experiment [6], in experiment [7] and in experiment [8] were 21.3 µM (inactive), 7.16 µM (inactive) and 99.8 µM (inactive), respectively.

`O=C(c1ccc(Cl)cc1)c1ccc(OCCSCCCCCCCCCCSCCOc2ccc(C(=O)c3ccc(Cl)cc3)cc2)cc1`: the GI50 in experiment [1], in experiment [3], in [5], in experiment [9], in experiment [6] and in experiment [7] was > 100 µM (inactive) in each case.

As to `COC(=O)CC1CCN(C#N)CC1CC[N+](=O)[O-]` (stereo not drawn), the GI50 in experiment [1], in experiment [2], in [3], in experiment [4], in [5] and in experiment [9] was > 100 µM (inactive) throughout. Besides, the GI50 in experiment [6] and in experiment [7] was > 100 µM (inactive) in each case.

As to `CCOC(=O)c1cccc(=O)c(C(=O)OCC)c1`, the GI50 in [1] is 40 µM (inactive); in experiment [2], 46.8 µM (inactive); in [3], 48.2 µM (inactive); in experiment [5], 97.3 µM (inactive); in experiment [9], 53.1 µM (inactive); in experiment [6] it was 67 µM (inactive). For the same molecule, the GI50 in experiment [7] was 57.3 µM (inactive); in experiment [8] it was 46.1 µM (inactive).

Turning to `COc1ccc(C(=O)C(CO)Oc2ccccc2OC)cc1OC` (stereo not drawn), the GI50 in [1], in [2], in [3], in experiment [5], in experiment [9] and in experiment [6] was > 100 µM (inactive) throughout. In addition, the GI50 in experiment [7] and in experiment [8] was > 100 µM (inactive) each time.

On to `C=C1C(=O)OC2CC3(C)OC3CC/C(C)=C/C(OC(C)=O)C12` (stereo not drawn), for which the GI50 in experiment [1] is 2.75 µM (inactive); in experiment [2], 7.4 µM (inactive); in [3], 14.9 µM (inactive); in experiment [4], 10.4 µM (inactive); in experiment [5], 6.55 µM (inactive); in experiment [9] it was 8.04 µM (inactive). Also, the GI50 was 9.44 µM (inactive) in [7] and 2 µM (inactive) in experiment [8].

In the case of `O=Cc1c(O)c(C(=O)Nc2ccc3[nH]c(=O)[nH]c3c2)cc2ccccc12`, the GI50 in experiment [1], in experiment [2], in experiment [3], in experiment [4], in experiment [5] and in experiment [9] was > 100 µM (inactive) each time. Besides, the GI50 in [6] and in experiment [7] was > 100 µM (inactive) each time.
